Where a name gives a salt, the structure may show the parent alone.
These compounds were tested on Frataxin (FXN) mRNA (assay: Effect of HDAC inhibitors on frataxin (FXN) mRNA expression, qRT-PCR in compound-treated iPSC derived neuronal cells). Details: iPSC, 24 h, compound concentration of 0.625 μM, 24 h incubation, read-out: FXN mRNA fold induction.
Assay type: cell-based
Method: Effect of HDAC Inhibitors on Frataxin (FXN) mRNA Expression
Method: mRNA quantification of compound-treated iPSC derived neuronal cells Neuronal stem cells were cultured in Neurobasal A medium (Life technologies #10888022) supplemented with N2, B27 (Life technologies #17502-048 and #17504-044), L-glutamine (Life technologies #25030081), supplemented with 20 ng/ml EGF (R&D Systems #236-EG) and 20 ng/ml bFGF (BioPioneer # HRP-0011). Neuronal differentiation was initiated by removing growth factors and culturing cells in Neurobasal A with N2 and B27. Cells were allowed to differentiate for 16 days. HDAC inhibitory compound was then added and incubate for 24 h. RNA isolation was performed using the RNeasy Plus mini kit (QIAgen #74134) using a QIAcube instrument per manufacturer's instructions. qRT-PCR was performed using qScript One-Step SYBR Green qRT-PCR Kit (Quanta Biosciences 170-8893BR) with the following conditions: 20 minutes at 50° C., 5 minutes at 95° C., and then 40 cycles of 20 seconds at 95° C., 20 seconds at 55° C., 30 seconds at 72° C. The primer sequences to detect expression of FXN were: 5′-[…]-3′ and 5′-[…]-3′.
The data for the following compounds, for FXN mRNA fold induction at a compound concentration of 0.625 μM are shown in Table 1, where A<1, 1<B<2, 2<C<3, 3<D<5, E>5.

First: Nc1ccccc1NC(=O)c1ccc(O[C@@H]2CCN(C3COC3)C2)cc1 [Compound 130, (R)-N-(2-aminophenyl)-4-((1-(oxetan-3-yl)pyrrolidin-3-yl)oxy)benzamide]
Second: CN1CC[C@H](Oc2ccc(C(=O)Nc3ccccc3N)cc2)C1 [Compound 50, (S)-N-(2-aminophenyl)-4-((1-methylpyrrolidin-3-yl)oxy)benzamide dihydrochloride]
The fold induction at 0.625 µM of the first is lower: 1 to 2 for the first, 2 to 3 for the second.

`Nc1ccccc1NC(=O)c1ccc(OC2CC3CCC(C2)N3)cc1` (stereo not drawn) [Compound 70, 4-((8-azabicyclo[3.2.1]octan-3-yl)oxy)-N-(2-aminophenyl)benzamide hydrochloride] and `Nc1ccccc1NC(=O)c1ccc(OC2CNC2)cc1` [Compound 41, N-(2-aminophenyl)-4-(azetidin-3-yloxy)benzamide hydrochloride] fall in the same range of fold induction at 0.625 µM: 1 to 2 for the first, 1 to 2 for the second.

First: Nc1ccccc1NC(=O)c1ccc(O[C@H]2CCCN(CC3CC3)CC2)cc1 [Compound 38A, (S)-N-(2-aminophenyl)-4-((1-(cyclopropylmethyl)azepan-4-yl)oxy)benzamide]
Second: Nc1ccccc1NC(=O)c1ccc(O[C@@H]2CCN(CC3CCCCC3)C2)cc1 [Compound 64, (R)-N-(2-aminophenyl)-4-((1-(cyclohexylmethyl)pyrrolidin-3-yl)oxy)benzamide dihydrochloride]
The fold induction at 0.625 µM of the first is lower: under 1 for the first, 2 to 3 for the second.

`CC(C)(O)CN1CC(Nc2ccc(C(=O)Nc3ccccc3N)cc2)C1` [Compound 89, N-(2-aminophenyl)-4-((1-(2-hydroxy-2-methylpropyl)azetidin-3-yl)amino)benzamide] and `CC(C)(O)CN1CC[C@H](Nc2ccc(C(=O)Nc3ccccc3N)cc2)C1` [Compound 97, (S)-N-(2-aminophenyl)-4-((1-(2-hydroxy-2-methylpropyl)pyrrolidin-3-yl)amino)benzamide] fall in the same range of fold induction at 0.625 µM: 1 to 2 for the first, 1 to 2 for the second.

First: Nc1ccccc1NC(=O)c1ccc(NC2CN(C3CC3)C2)cc1 [Compound 134, N-(2-aminophenyl)-4-((1-cyclopropylazetidin-3-yl)amino)benzamide trihydrochloride]
Second: Nc1ccccc1NC(=O)c1ccc(NC2CCN(C3CC3)CC2)cc1 [Compound 140, N-(2-aminophenyl)-4-((1-cyclopropylpiperidin-4-yl)amino)benzamide trihydrochloride trihydrochloride]
The fold induction at 0.625 µM of the first is lower: 1 to 2 for the first, 2 to 3 for the second.

Compared with `CC1(CN2CC(Oc3ccc(C(=O)Nc4ccccc4N)cc3)C2)CC1` [Compound 47, N-(2-aminophenyl)-4-((1-((1-methylcyclopropyl)methyl)azetidin-3-yl)oxy)benzamide dihydrochloride], `CC1(CN2CC[C@@H](Oc3ccc(C(=O)Nc4ccccc4N)cc3)C2)CC1` [Compound 63, (R)-N-(2-aminophenyl)-4-((1-((1-methylcyclopropyl)methyl)pyrrolidin-3-yl)oxy)benzamide dihydrochloride] is higher in fold induction at 0.625 µM: 1 to 2 for the first, 2 to 3 for the second.

`Nc1ccccc1NC(=O)c1ccc(N[C@@H]2CCN(CC3CC3)C2)cc1` [Compound 107, (R)-N-(2-aminophenyl)-4-((1-(cyclopropylmethyl)pyrrolidin-3-yl)amino)benzamide trihydrochloride] and `Nc1ccccc1NC(=O)c1ccc(NC2CCCN(CC3CC3)CC2)cc1` (stereo not drawn) [Compound 83, N-(2-aminophenyl)-4-((1-(cyclopropylmethyl)azepan-4-yl)amino)benzamide trihydrochloride] fall in the same range of fold induction at 0.625 µM: 2 to 3 for the first, 2 to 3 for the second.

`CN1CC(Oc2ccc(C(=O)Nc3ccccc3N)cc2)C1` [Compound 42, N-(2-aminophenyl)-4-((1-methylazetidin-3-yl)oxy)benzamide] and `CC(C)CN1CC[C@@H](Oc2ccc(C(=O)Nc3ccccc3N)cc2)C1` [Compound 59, (R)-N-(2-aminophenyl)-4-((1-isobutylpyrrolidin-3-yl)oxy)benzamide dihydrochloride] fall in the same range of fold induction at 0.625 µM: 1 to 2 for the first, 1 to 2 for the second.

Compared with `CC(C)(C)CN1CC[C@@H](Nc2ccc(C(=O)Nc3ccccc3N)cc2)C1` [Compound 106, (R)-N-(2-aminophenyl)-4-((1-neopentylpyrrolidin-3-yl)amino)benzamide], `CN1CCC(Nc2ccc(C(=O)Nc3ccccc3N)cc2)CC1` [Compound 111, N-(2-aminophenyl)-4-((1-methylpiperidin-4-yl)amino)benzamide] is lower in fold induction at 0.625 µM: 2 to 3 for the first, 1 to 2 for the second.

`CC1(CN2CC(Nc3ccc(C(=O)Nc4ccccc4N)cc3)C2)CC1` [Compound 92, N-(2-aminophenyl)-4-((1-((1-methylcyclopropyl)methyl)azetidin-3-yl)amino)benzamide] and `Nc1ccccc1NC(=O)c1ccc(NC2CNC2)cc1` [Compound 86, N-(2-aminophenyl)-4-(azetidin-3-ylamino)benzamide trihydrochloride] fall in the same range of fold induction at 0.625 µM: 2 to 3 for the first, 2 to 3 for the second.

`CC(C)(O)CN1CCC(Oc2ccc(C(=O)Nc3ccccc3N)cc2)CC1(C)C` (stereo not drawn) [Compound 363, N-(2-aminophenyl)-4-((1-(2-hydroxy-2-methylpropyl)-2,2-dimethylpiperidin-4-yl)oxy)benzamide] and `CC(C)(C)CN1CCCC(Oc2ccc(C(=O)Nc3ccccc3N)cc2)CC1` (stereo not drawn) [Compound 37, N-(2-aminophenyl)-4-((1-neopentylazepan-4-yl)oxy)benzamide] fall in the same range of fold induction at 0.625 µM: 2 to 3 for the first, 2 to 3 for the second.

`Nc1ccccc1NC(=O)c1ccc(NC2CCNCC2)cc1` [Compound 110, dihydrochloride] gave a fold induction at 0.625 µM of 2 to 3.

Same assay, conditions: iPSC, 24 h, read-out: FXN mRNA fold induction, compound concentration of 0.625 μM, 24 h incubation

`CN1C2CCC1CC(Oc1ccc(C(=O)Nc3ccccc3N)cc1)C2` (stereo not drawn) [Compound 71, N-(2-aminophenyl)-4-((8-methyl-8-azabicyclo[3.2.1]octan-3-yl)oxy)benzamide dihydrochloride] and `CC(C)(C)CN1C2CCC1CC(Oc1ccc(C(=O)Nc3ccccc3N)cc1)C2` (stereo not drawn) [Compound 74, N-(2-aminophenyl)-4-((8-neopentyl-8-azabicyclo[3.2.1]octan-3-yl)oxy)benzamide dihydrochloride] fall in the same range of fold induction at 0.625 µM: 1 to 2 for the first, 1 to 2 for the second.

`Nc1ccccc1NC(=O)c1ccc(NC2CC3CCC(C2)N3CC2CCCCC2)cc1` (stereo not drawn) [Compound 122, N-(2-aminophenyl)-4-((8-(cyclohexylmethyl)-8-azabicyclo[3.2.1]octan-3-yl)amino)benzamide] and `CN1C2CCC1CC(Nc1ccc(C(=O)Nc3ccccc3N)cc1)C2` (stereo not drawn) [Compound 116, N-(2-aminophenyl)-4-((8-methyl-8-azabicyclo[3.2.1]octan-3-yl)amino)benzamide trihydrochloride] fall in the same range of fold induction at 0.625 µM: 2 to 3 for the first, 2 to 3 for the second.

Compared with `CC(C)(O)CN1CCC(N(CC2CC2)c2ccc(C(=O)Nc3ccccc3N)cc2)CC1` [Compound 29, N-(2-aminophenyl)-4-((cyclopropylmethyl)(1-(2-hydroxy-2-methylpropyl)piperidin-4-yl)amino)benzamide Trihydrochloride], `CCN(c1ccc(C(=O)Nc2ccccc2N)cc1)C1CCN(CC2CC2)CC1` [Compound 26, N-(2-aminophenyl)-4-((1-(cyclopropylmethyl)piperidin-4-yl)(ethyl)amino)benzamide Trihydrochloride] is higher in fold induction at 0.625 µM: 1 to 2 for the first, 2 to 3 for the second.

Compound `Nc1ccccc1NC(=O)c1ccc(OC2CC3CCC(C2)N3CC2CC2)cc1` (stereo not drawn) [Compound 75, N-(2-aminophenyl)-4-((8-(cyclopropylmethyl)-8-azabicyclo[3.2.1]octan-3-yl)oxy)benzamide dihydrochloride] has a fold induction at 0.625 µM of 1 to 2.
